Publication PMC8235719, “New RAD51 Inhibitors to Target Homologous Recombination in Human Cells” (Genes, 2021)
Like-named read-outs stand apart in the source and are kept apart here.

Key:
Type in all cases: cell-based, human
[1] = test system: MDA-MB-231 cells; test: Cell viability assay (Guava ViaCount flow cytometry), MDA-MB-231; conditions: for IC50: read-out: IC50 of cell viability
Experimental: For all cell viability experiments, except experiments involving MMS treatment, cells were seeded into the media containing indicated concentrations of tested compounds or corresponding amounts of DMSO in controls. The concentration of DMSO in media was 0.1%. MDA-MB-231 cells were seeded into 24-well plates at 3.5 × 10^4 cells/well for cells for a 4-day treatment or at 5000 cells/well for a 10-day treatment. MCF 10A cells were seeded into 24-well plates at 1.5 × 10^4 cells/well for a 4-day treatment or at 500 cells/well for a 10-day treatment. In the case of 10-day treatments, the media with compounds were renewed twice on the 4th and the 7th days of treatments. After completion of the treatments, cells were harvested, and their viability was determined by flow cytometry with Guava ViaCount reagent (Luminex; Austin, TX USA). Data were analyzed using the Guava ViaCount software (Millipore; Burlington, VT, USA). The IC50 values were calculated using the GraphPad Prism 5 software (San Diego, CA, USA).

[2] = test system: MDA-MB-231 cells; test: Cell viability of MDA-MB-231 after 1 h MMS treatment; conditions: MDA-MB-231, 100 µM MMS 1 h
Experimental: For experiments in which MDA-MB-231 cells were treated with MMS, cells were seeded in 24-well plates at 3.5 × 10^4 cells/well. The next day, cells were treated with 100 µM MMS (Sigma, St. Louis, MO, USA) for 1 h in the presence of increasing concentrations of olaparib and 2 µM B02-iso where indicated. Then, cells were washed twice with PBS, which was followed by incubation with olaparib at indicated concentrations and 2 µM B02-iso where indicated for 4 days. After completion of the treatments, cells were harvested, and their viability was determined by flow cytometry using Guava ViaCount reagent (Luminex; Austin, TX, USA). Data were analyzed using the Guava ViaCount software (Millipore; Burlington, VT, USA).

[3] = test system: MCF 10A cells; test: EdU cell proliferation assay, MCF 10A; conditions: 24 h
Experimental: (§1) Exponentially growing MDA-MB-231 and MCF 10A cells were seeded into 6-well plates at a density of 1.5 × 10^5 cells/well in the presence of indicated concentrations of B02-iso or 0.1% DMSO (for control cells). After 24 h of incubation, cells were labeled with 10 µM Edu (Invitrogen; Waltham, […], USA) for 1 h or left unlabeled in the control. Cells were harvested and centrifuged at 500× g, 4 °C for 5 min, and cell pellets were washed with PBS supplemented with 1% BSA, spun down, and fixed with 4% methanol-free formaldehyde (Pierce) in PBS for 15 min. Cells were washed with PBS containing 1% BSA, centrifuged 500× g for 5 min. Cell pellets were resuspended in PBS containing 0.1% Triton X-100 and incubated for 15 min for permeabilization. Cells were spun down, resuspended in freshly prepared Edu click labeling solution (1 mM CuSO4, 1.25 µM Alexa Fluor 488 Azide (Invitrogen; Waltham, […], USA), 50 mM ascorbic acid in PBS) and incubated for 30 min in the dark. Cells were washed twice with PBS containing 0.1% Triton X-100, resuspended in the same buffer, and analyzed for Edu incorporation by flow cytometry using the Guava easyCyte system (Millipore; Burlington, VT, USA) with the InCyte software (Millipore; Burlington, VT, USA).

[4] = test system: MDA-MB-231 cells; test: EdU cell proliferation assay, MDA-MB-231; conditions: 24 h
Experimental: as §1

[5] = test system: MCF 10A cells; test: Cell cycle analysis (propidium iodide flow cytometry); conditions: 24 h
Experimental: Exponentially growing MDA-MB-231 and MCF 10A cells were seeded into 6-well plates at a density of 1.5 × 10^5 cells/well in the presence of indicated concentrations of B02-iso or 0.01% DMSO (for control cells). After 24 h of incubation, cells were harvested, placed on ice, and washed once with cold PBS. Cells were counted with an automated cell counter (Bio-Rad; Hercules, CA, USA), and 1 × 10^5 cells from each sample were taken for further analysis. Cells were resuspended in PBS, and then cold, absolute ethanol was added dropwise to a cell suspension to reach a final concentration of 70%, followed by incubation on ice for 1 h. Cells were washed in PBS, resuspended in staining buffer (50 µg/mL propidium iodide, 100 µg/mL RNase A, 0.1% Triton X-100 in PBS) and incubated for 15 min in the dark at 37 °C. Cells were analyzed for DNA content by flow cytometry using the Guava easyCyte system (Millipore; Burlington, VT, USA) with the InCyte software (Millipore; Burlington, VT, USA).

- IC50 ([1]; Homo sapiens, MDA-MB-231, 96 h, MDA-MB-231, 4-day treatment): 4.1 µM
- IC50 ([1]; Homo sapiens, MDA-MB-231, 240 h, MDA-MB-231, 10-day treatment, compound alone): 2.6 µM
SMILES: O=c1nc(/C=C/c2cccnc2)n(Cc2ccccc2)c2ccccc12 [B02-iso]
- inhibition at 2 µM ([1]; Homo sapiens, 96 h, MDA-MB-231, 2 µM, 4-day treatment, read-out: Growth inhibition): < 5%
- Effect on cell viability, compound alone ([1]; MDA-MB-231, 1.8 µM, 10-day treatment): does not impair cell viability
- Fold increase in efficiency of olaparib killing ([1]; MDA-MB-231, 10-day treatment, 1.8 µM B02-iso): 2.4 fold
- Sensitization of cells to B02-iso by MMS in the absence of olaparib ([2]; 4-day treatment): did not sensitize
- Effect on cell killing by MMS plus olaparib ([2]; olaparib, 2 µM B02-iso, 4 days): further significantly increased
- Fraction of DNA-replicating cells (EdU) ([3]; 4 µM): dropped approximately two-fold
- Fraction of DNA-replicating cells (EdU) ([3]; 8 µM): abolished almost entirely
- Fraction of DNA-replicating cells (EdU) ([4]; MDA-MB-231, 4 µM): remained unchanged
- Reduction of fraction of DNA-replicating cells (EdU) ([4]; MDA-MB-231, 8 µM): approximately 20%
- Cell cycle effect [5]: prominent G1 arrest
